Patent US5614408A, “Monoclonal antibodies to potato, tomato, and eggplant glycoalkaloids and assays for the same” (priority 1995, dated 1997)

Tests used:
Format in all cases: binding, mouse
[1] = tested on: monoclonal antibody Sol-8; assay: competitive inhibition ELISA (c-ELISA), monoclonal antibody Sol-8; conditions: Sol-8 (IgG2a); ± one standard deviation
Method: (§1) Five, 6 month old BALB/c mice were injected with 50 μl of the solanidine-KLH conjugate mixed 1:1 with Ribi adjuvant (Ribi Immunochem Research Inc., Hamilton, Mont.). The mice received half the dose intraperitoneally and half intramuscularly every other week for a total of three injections. One month later, and 4 days prior to fusion, a selected mouse was given an intraperitoneal injection of 50 μl of solanidine-KLHconjugate in sterile saline. The spleen was removed and the splenocytes fused with SP2/O myeloma cells as described by Stanker et al. (1986, J. Immunol., 136:4174-4180), the contents of which are incorporated by reference herein. The fused cells were plated over 30 96-well microculture plates previously coated with mouse peritoneal exudate cells (macrophage) and grown under conditions described by Elissalde et al. (1993, J. Agric. Food Chem., 41:2167-2171), the contents of which are also incorporated by reference herein.
(§2) db-ELISA. A modification of a direct-binding ELISA described by Stanker et al. (1993, J. Agric. Food Chem., 41:1332-1336), the contents of which are incorporated by reference herein, was used to screen the culture fluids from the growing hybridomas for antibodies to solanidine. Microtiter plates (Nunc Maxisorb, Roskilde, Denmark; or Costar high binding plates, Costar Corp., Wilmington, Mass.) were coated with SOL-BSA by addition of 100 μl/well of a 1 μg/ml solution of SOL-BSA in distilled water. The SOL-BSA was incubated in uncovered plates at 37° C. for 18 hr to evaporate the liquid and allow the SOL-BSA to coat the bottom of the microtiter wells. The "coated" plates were then stored in sealed plastic bags at 4° C. and used within 2 weeks. Nonreacted sites on the plates were blocked by adding 400 μl of a 3% solution of nonfat dry milk (NFDM) in assay buffer (0.1M Tris, 0.15M NaCl, 10 mg/ml nonfat dry milk, 0.001% Tween 20, 0.02% sodium azide) and incubating the plates at room temperature for 1 hr. The blocking solution was then discarded and 100 μl of the hybridoma supernatant(s) or anti-solanidine Mab (from ascites fluid) was added, and the plates incubated for 1 hr at 37° C. After incubation, the plates were washed with a solution of 0.05% TWEEN-20 in water, and peroxidase conjugated goat anti-mouse antiserum (Sigma Inc., St. Louis, Mo.), diluted 1:500 in assay buffer, was then added to each well. Following a second 1 hr incubation at 37° C., the plates were washed as described above. Finally, the substrate, 2,2'-azino-bis(ethylbenzthiazole-6-sulfonic acid) (ABTS), was added. Absorbance was measured at 405 nm and the resulting data analyzed by computer using an Excel (Microsoft, Redmond, Wash.) spreadsheet program.
(§3) c-ELISA. The competitive inhibition ELISA for solanidine and other glycoalkaloids was carried out as previously described for other compounds by Stanker et al. (1993, ibid). Briefly, to each well of an antigen (glycoalkaloid or aglycone) coated, non-fat-milk-blocked, microtiter plate prepared as described in the db-ELISA was added 100 μl of assay buffer. Competitors (free solanidine and other glycoalkaloids and aglycones, and four structurally related steroids cholesterol, digitonin, βsitosterol, and stigmasterol, shown in Table 1) dissolved in 100 μl of assay buffer were added to the microassay plate and serially diluted (a 2-fold series). Next, 100 μl of assay buffer containing a predetermined amount of anti-solanidine monoclonal antibody prepared above was added to each well. The amount of anti-alkaloid antibody added was the concentration (dilution from tissue culture supernatant) resulting in approximately 50% of maximum binding or signal in a direct-binding ELISA where no competitor was present. The plates were sealed with plastic wrap, incubated for 1 hr at 37° C., and then processed as described in the db-ELISA to detect bound antibody. […]

[2] = tested on: monoclonal antibody Sol-54; assay: competitive inhibition ELISA (c-ELISA), monoclonal antibody Sol-54; conditions: Sol-54 (IgG2a); ± one standard deviation
Method: as §1, §2, §3

[3] = tested on: monoclonal antibody Sol-55; assay: competitive inhibition ELISA (c-ELISA), monoclonal antibody Sol-55; conditions: Sol-55 (IgG2a); ± one standard deviation
Method: as §1, §2, §3

[4] = tested on: monoclonal antibody Sol-59; assay: competitive inhibition ELISA (c-ELISA), monoclonal antibody Sol-59; conditions: Sol-59 (IgG2a); ± one standard deviation
Method: as §1, §2, §3

[5] = tested on: monoclonal antibody Sol-67; assay: competitive inhibition ELISA (c-ELISA), monoclonal antibody Sol-67; conditions: Sol-67 (IgG1); ± one standard deviation
Method: as §1, §2, §3

[6] = tested on: monoclonal antibody Sol-68; assay: competitive inhibition ELISA (c-ELISA), monoclonal antibody Sol-68; conditions: Sol-68 (IgG1); ± one standard deviation
Method: as §1, §2, §3

[7] = tested on: monoclonal antibody Sol-71; assay: competitive inhibition ELISA (c-ELISA), monoclonal antibody Sol-71; conditions: Sol-71 (IgG2a); ± one standard deviation
Method: as §1, §2, §3

[8] = tested on: monoclonal antibody Sol-91; assay: competitive inhibition ELISA (c-ELISA), monoclonal antibody Sol-91; conditions: Sol-91 (IgG2a); ± one standard deviation
Method: as §1, §2, §3

[9] = tested on: monoclonal antibody Sol-106; assay: competitive inhibition ELISA (c-ELISA), monoclonal antibody Sol-106; conditions: Sol-106 (IgG2a); ± one standard deviation
Method: as §1, §2, §3

[10] = tested on: monoclonal antibody Sol-129; assay: competitive inhibition ELISA (c-ELISA), monoclonal antibody Sol-129; conditions: Sol-129 (IgG1); ± one standard deviation
Method: as §1, §2, §3

[11] = tested on: eleven monoclonal antibodies; assay: competitive inhibition ELISA (c-ELISA), all eleven monoclonal antibodies; conditions: in words
Method: as §1, §2
c-ELISA. […]

Compound | IC50 [1] | IC50 [2] | IC50 [3] | IC50 [4] | IC50 [5] | IC50 [6] | IC50 [7] | IC50 [8] | IC50 [9] | IC50 [10] | cross-reaction of the antibodies [11]
C[C@@H]1CC[C@@]2(OC1)O[C@H]1[C@@H](O)[C@H]3[C@@H]4CC[C@H]5C[C@@H](O[C@@H]6O[C@H](CO)[C@H](O[C@@H]7O[C@H](CO)[C@@H](O)[C@H](O[C@@H]8OC[C@@H](O)[C@H](O)[C@H]8O)[C@H]7O[C@@H]7O[C@H](CO)[C@H](O)[C@H](O[C@@H]8O[C@H](CO)[C@@H](O)[C@H](O)[C@H]8O)[C@H]7O)[C@H](O)[C@H]6O)[C@H](O)C[C@]5(C)[C@H]4CC[C@]3(C)[C@H]1[C@@H]2C [digitonin] | nc (no competition at 10,000 ppb) | nc (no competition at 10,000 ppb) | nc (no competition at 10,000 ppb) | nc (no competition at 10,000 ppb) | nc (no competition at 10,000 ppb) | nc (no competition at 10,000 ppb) | nc (no competition at 10,000 ppb) | nc (no competition at 10,000 ppb) | nc (no competition at 10,000 ppb) | nc (no competition at 10,000 ppb) | None of the eleven antibodies cross-reacted
CC[C@H](/C=C/[C@@H](C)[C@H]1CC[C@H]2[C@@H]3CC=C4C[C@@H](O)CC[C@]4(C)[C@H]3CC[C@]12C)C(C)C [stigmasterol] | nc (no competition at 10,000 ppb) | nc (no competition at 10,000 ppb) | nc (no competition at 10,000 ppb) | nc (no competition at 10,000 ppb) | nc (no competition at 10,000 ppb) | nc (no competition at 10,000 ppb) | nc (no competition at 10,000 ppb) | nc (no competition at 10,000 ppb) | nc (no competition at 10,000 ppb) | nc (no competition at 10,000 ppb) | None of the eleven antibodies cross-reacted
CC[C@H](CC[C@@H](C)[C@H]1CC[C@H]2[C@@H]3CC=C4C[C@@H](O)CC[C@]4(C)[C@H]3CC[C@]12C)C(C)C [β-sitosterol] | nc (no competition at 10,000 ppb) | nc (no competition at 10,000 ppb) | nc (no competition at 10,000 ppb) | nc (no competition at 10,000 ppb) | nc (no competition at 10,000 ppb) | nc (no competition at 10,000 ppb) | nc (no competition at 10,000 ppb) | nc (no competition at 10,000 ppb) | nc (no competition at 10,000 ppb) | nc (no competition at 10,000 ppb) | None of the eleven antibodies cross-reacted
